From US20230348369A1 (Cytokinetics, Inc., priority 2020, published 2023)
Like-named read-outs stand apart in the source and are kept apart here.

Biological target: human NAMPT (Homo sapiens, UniProt P43490)
Experiment: Human recombinant enzyme assay (NMN fluorescence biochemical assay, activation of NAMPT)
Description: Compounds described herein were assayed for their ability to stimulate the synthesis of nicotinamide mononucleotide (NMN) by the enzyme NAMPT. The human recombinant enzyme assay measures the activation of the enzyme activity by compounds using recombinant enzyme and substrates in a buffered cell-free system. The assay conditions closely mimic cellular environments. Dose responses were measured using an assay to detect the formation of nicotinamide mono-nucleotide. All experiments were performed in the 384-well format. […] Enzyme reactions were initiated with the addition of 10 μL of a solution containing the substrates. The final assay conditions were as follows: 6 nM human NAMPT, 2.5 mM ATP, 20 μM PRPP and 150 μM nicotinamide in 50 mM HEPES, pH 7.2, 1 mM DTT, 1 mM CHAPS 50 mM NaCl, 100 mM MgCl2. Following an incubation of 60 min at ambient temperature, 10 μL of 20% acetophenone in DMSO was added, followed by 10 μL of 2 M KOH and 40 μL of formic acid. The plates were read for fluorescence (Excitation/Emission=355 nm/460 nm) using an EnVision plate reader after 40 mins of incubation at ambient temperature.

[1] = Table A, human recombinant NAMPT, NMN formation, 60 min, read-out: EC50 Human
[2] = Table A, human recombinant NAMPT, NMN formation, 60 min

Chain of human NAMPT (P43490 whole entry): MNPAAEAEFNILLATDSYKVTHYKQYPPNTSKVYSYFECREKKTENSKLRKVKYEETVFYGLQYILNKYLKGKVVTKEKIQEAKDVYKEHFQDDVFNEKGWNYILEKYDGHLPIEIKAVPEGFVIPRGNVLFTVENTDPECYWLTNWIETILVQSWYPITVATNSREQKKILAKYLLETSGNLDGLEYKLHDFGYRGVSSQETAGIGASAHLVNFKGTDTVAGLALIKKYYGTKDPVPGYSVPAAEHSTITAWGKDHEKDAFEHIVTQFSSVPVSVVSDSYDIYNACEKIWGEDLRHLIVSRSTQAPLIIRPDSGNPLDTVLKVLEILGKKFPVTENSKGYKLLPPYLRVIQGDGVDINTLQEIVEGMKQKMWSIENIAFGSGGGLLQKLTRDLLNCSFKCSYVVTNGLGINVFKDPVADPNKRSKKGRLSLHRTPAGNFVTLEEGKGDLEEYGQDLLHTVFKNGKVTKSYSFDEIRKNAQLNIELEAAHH

**Q.** Which EC50 [1] does the source give for `CC(C)(C)OC(=O)NC1CC2(CC(NC(=O)NCc3ccc(Cl)cc3)C2)C1` (racemic) [Compound 8] here?
**A.** The EC50 was 5.1 µM.

**Q.** With `CC(C)(O)CN1CCN(C(=O)[C@H]2C[C@]3(C[C@H](NC(=O)NCc4ccc(Cl)cc4)C3)C2)CC1` (single isomer, unassigned) [Compound 182] as the compound, how does the EC50 read?
**A.** Its EC50 is 20.5 µM.

**Q.** `COC(=O)[C@H]1C[C@@]2(C[C@H](NC(=O)NCc3ccc(Cl)cc3)C2)C1` (single isomer, unassigned) [Compound 201, methyl 6-(3-(4-chlorobenzyl)ureido)spiro[3.3]heptane-2-carboxylate] was tested. Which EC50 did it give?
**A.** Its EC50 is 22.2 µM.

**Q.** And the “AC1.4 Human” value [2]?
**A.** Its value is 6.7 µM.

**Q.** `COc1ccc(CNC(=O)NC2CC3(C2)CC(C(=O)NC2CCCc4ccc(F)cc42)C3)cc1` (stereo in doubt) [Compound 97, (S)-N-(7-fluoro-1,2,3,4-tetrahydronaphthalen-1-yl)-6-(3-(4-methoxybenzyl)ureido)spiro[3.3]heptane-2-carboxamide] was tested. Which “AC1.4 Human” value [2] did it give?
**A.** Its value is 1.3 µM.

**Q.** What about the EC50 [1] of the same compound?
**A.** Its EC50 is 2.7 µM.

**Q.** With `COc1ccc(CNC(=O)NC2CC3(C2)CC(C(=O)NC2CCCc4cc(F)ccc42)C3)cc1` (stereo in doubt) [Compound 98, (S)-N-(6-fluoro-1,2,3,4-tetrahydronaphthalen-1-yl)-6-(3-(4-methoxybenzyl)ureido)spiro[3.3]heptane-2-carboxamide] as the compound, how does the “AC1.4 Human” value [2] read?
**A.** The value was 3.0 µM.

**Q.** What about the EC50 [1] of the same compound?
**A.** The EC50 was 7 µM.

**Q.** `COc1ccc(CNC(=O)NC2CC3(C2)CC(C(=O)NC2CCCc4ccc(F)cc42)C3)cc1` (stereo in doubt) [Compound 99, (R)-N-(7-fluoro-1,2,3,4-tetrahydronaphthalen-1-yl)-6-(3-(4-methoxybenzyl)ureido)spiro[3.3]heptane-2-carboxamide] was tested. Which “AC1.4 Human” value [2] did it give?
**A.** Its value is 5.1 µM.

**Q.** And the EC50 [1]?
**A.** The EC50 was 3.9 µM.

**Q.** How did the “AC1.4 Human” value [2] turn out when `COc1ccc(CNC(=O)NC2CC3(C2)CC(C(=O)NC2CCCc4ccccc42)C3)cc1` (stereo in doubt) [Compound 100, (R)-6-(3-(4-methoxybenzyl)ureido)-N-(1,2,3,4-tetrahydronaphthalen-1-yl)spiro[3.3]heptane-2-carboxamide] was run?
**A.** The value was 8.5 µM.

**Q.** And the EC50 [1]?
**A.** Its EC50 is 10.3 µM.

**Q.** `O=C(NCCCCC1CCN(C(=O)c2ccccc2)CC1)NCc1ccncc1` [Compound 1, 1-(4-(1-benzoylpiperidin-4-yl)butyl)-3-(pyridin-4-ylmethyl)urea] was tested. Which “AC1.4 Human” value [2] did it give?
**A.** Its value is 0.1 µM.

**Q.** And the EC50 [1]?
**A.** The EC50 was 0.8 µM.

**Q.** For `CC(C)(C)OC(=O)NC1CC2(CC(NC(=O)NCc3ccc(C(N)=O)cc3)C2)C1` (centres unmarked) [Compound 2, tert-butyl (6-(3-(4-carbamoylbenzyl)ureido)spiro[3.3]heptan-2-yl)carbamate], which EC50 [1] is on record?
**A.** Its EC50 is 25.9 µM.

**Q.** Which results are given for `CC1(C)CCC(NC(=O)NCc2ccc(C(N)=O)cc2)CC1` [Compound 3, 4-((3-(4,4-dimethylcyclohexyl)ureido)methyl)benzamide]?
**A.** AC1.4 Human [2]: 17.5 µM; EC50 [1]: 41.4 µM

**Q.** `NC(=O)c1ccc(CNC(=O)NC2CC(c3ccccc3)C2)cc1` (centres unmarked) [Compound 4, 4-((3-(3-phenylcyclobutyl)ureido)methyl)benzamide] was tested. Which “AC1.4 Human” value [2] did it give?
**A.** Its value is 9.9 µM.

**Q.** How did the EC50 [1] turn out when `CC(C)(C)OC(=O)N1CCC(NC(=O)NCc2ccc(C(N)=O)cc2)CC1` [Compound 5, tert-butyl 4-(3-(4-carbamoylbenzyl)ureido)piperidine-1-carboxylate] was run?
**A.** The EC50 was 48.6 µM.

**Q.** How did the “AC1.4 Human” value [2] turn out when `CC(C)(C)OC(=O)NC1CC2(CC(NC(=O)NCc3ccncc3)C2)C1` (centres unmarked) [Compound 6, tert-butyl (6-(3-(pyridin-4-ylmethyl)ureido)spiro[3.3]heptan-2-yl)carbamate] was run?
**A.** Its value is 4.5 µM.

**Q.** What about the EC50 [1] of the same compound?
**A.** The EC50 was 26.8 µM.

**Q.** Which results are given for `CC(C)(C)OC(=O)NC1CC2(CC(NC(=O)NCc3ccc(CO)cc3)C2)C1` (centres unmarked) [Compound 9, tert-butyl (6-(3-(4-(hydroxymethyl)benzyl)ureido)spiro[3.3]heptan-2-yl)carbamate]?
**A.** AC1.4 Human [2]: 3.4 µM; EC50 [1]: 47 µM

**Q.** Which “AC1.4 Human” value [2] does the source give for `CC(C)(C)OC(=O)NC1CC2(CC(NC(=O)NCc3cn[nH]c3)C2)C1` (centres unmarked) [Compound 10, tert-butyl (6-(3-((1H-pyrazol-4-yl)methyl)ureido)spiro[3.3]heptan-2-yl)carbamate] here?
**A.** The value was 5.8 µM.

**Q.** And the EC50 [1]?
**A.** Its EC50 is 50.7 µM.

**Q.** Which “AC1.4 Human” value [2] does the source give for `CC(C)(C)OC(=O)NC1CC2(CC(NC(=O)NCc3cnco3)C2)C1` (centres unmarked) [Compound 11, tert-butyl (6-(3-(oxazol-5-ylmethyl)ureido)spiro[3.3]heptan-2-yl)carbamate] here?
**A.** The value was 11.5 µM.

**Q.** Which EC50 [1] does the source give for `CC(C)(C)OC(=O)NC1CCC(NC(=O)NCc2ccc(C(N)=O)cc2)CC1` (centres unmarked) [Compound 12, tert-butyl (4-(3-(4-carbamoylbenzyl)ureido)cyclohexyl)carbamate] here?
**A.** The EC50 was 40 µM.

**Q.** Which “AC1.4 Human” value [2] does the source give for `NC(=O)c1ccc(CNC(=O)NC2CCN(C(=O)c3ccccc3)CC2)cc1` [Compound 13, 4-((3-(1-benzoylpiperidin-4-yl)ureido)methyl)benzamide] here?
**A.** Its value is 17.5 µM.

**Q.** What does the source list for `O=C(NCc1ccncc1)NC1CC2(C1)CC(NC(=O)c1ccccc1)C2` (centres unmarked) [Compound 15, N-(6-(3-(pyridin-4-ylmethyl)ureido)spiro[3.3]heptan-2-yl)benzamide]?
**A.** AC1.4 Human [2]: 10.4 µM; EC50 [1]: 17.7 µM

**Q.** For `O=C(NCc1cn[nH]c1)NC1CC2(C1)CC(NC(=O)c1ccccc1)C2` (centres unmarked) [Compound 17, N-(6-(3-((1H-pyrazol-4-yl)methyl)ureido)spiro[3.3]heptan-2-yl)benzamide], which “AC1.4 Human” value [2] is on record?
**A.** Its value is 17.6 µM.

**Q.** What about the EC50 [1] of the same compound?
**A.** Its EC50 is 50.5 µM.

**Q.** For `COc1ccc(CNC(=O)NC2CC3(C2)CC(NC(=O)c2ccccc2)C3)cc1` (centres unmarked) [Compound 18, N-(6-(3-(4-methoxybenzyl)ureido)spiro[3.3]heptan-2-yl)benzamide], which “AC1.4 Human” value [2] is on record?
**A.** Its value is 18.9 µM.

**Q.** What about the EC50 [1] of the same compound?
**A.** Its EC50 is 60.2 µM.

**Q.** Which “AC1.4 Human” value [2] does the source give for `NC(=O)c1ccc(CNC(=O)N[C@H]2C[C@H](C(=O)NCc3ccccc3)C2)cc1` [Compound 21, 4-((3-((1r,3r)-3-(benzylcarbamoyl)cyclobutyl)ureido)methyl)benzamide] here?
**A.** Its value is 8.0 µM.

**Q.** What about the EC50 [1] of the same compound?
**A.** Its EC50 is 45 µM.

**Q.** What does the source list for `NC(=O)c1ccc(CNC(=O)NC2CC3(CC(NCc4ccccc4)C3)C2)cc1` (centres unmarked) [Compound 24]?
**A.** AC1.4 Human [2]: 8.1 µM; EC50 [1]: 29.1 µM

**Q.** What does the source list for `CC(C)(C)OC(=O)N1CCC2(CC1)CC2CNC(=O)NCc1ccncc1` (centres unmarked) [Compound 25, tert-butyl 1-((3-(pyridin-4-ylmethyl)ureido)methyl)-6-azaspiro[2.5]octane-6-carboxylate]?
**A.** AC1.4 Human [2]: 5.0 µM; EC50 [1]: 27.4 µM

**Q.** For `NC(=O)c1ccc(CNC(=O)NC2CC3(C2)CC(Nc2ccccn2)C3)cc1` (centres unmarked) [Compound 26, 4-((3-(6-(pyridin-2-ylamino)spiro[3.3]heptan-2-yl)ureido)methyl)benzamide], which EC50 is on record?
**A.** The EC50 was 16.7 µM.

**Q.** And the “AC1.4 Human” value [2]?
**A.** The value was 2.0 µM.

**Q.** How did the EC50 [1] turn out when `COc1ccc(CNC(=O)NCC2CC23CCN(C(=O)OC(C)(C)C)CC3)cc1` (centres unmarked) [Compound 28, tert-butyl 1-((3-(4-methoxybenzyl)ureido)methyl)-6-azaspiro[2.5]octane-6-carboxylate] was run?
**A.** The EC50 was 42.5 µM.

**Q.** How did the EC50 [1] turn out when `CC(C)(C)OC(=O)N1CCC2(CC1)CC2CNC(=O)NCc1cnco1` (centres unmarked) [Compound 30, tert-butyl 1-((3-(oxazol-5-ylmethyl)ureido)methyl)-6-azaspiro[2.5]octane-6-carboxylate] was run?
**A.** Its EC50 is 37.9 µM.

**Q.** How did the “AC1.4 Human” value [2] turn out when `CC(C)(C)OC(=O)N1CCC2(CC1)CC2CNC(=O)NCc1cn[nH]c1` (centres unmarked) [Compound 31, tert-butyl 1-((3-((1H-pyrazol-4-yl)methyl)ureido)methyl)-6-azaspiro[2.5]octane-6-carboxylate] was run?
**A.** The value was 3.2 µM.

**Q.** What about the EC50 [1] of the same compound?
**A.** Its EC50 is 40.1 µM.

**Q.** With `NC(=O)c1ccc(CNC(=O)NC2CC3(CC(NCc4ccccn4)C3)C2)cc1` (centres unmarked) [Compound 34, 4-((3-(6-((pyridin-2-ylmethyl)amino)spiro[3.3]heptan-2-yl)ureido)methyl)benzamide] as the compound, how does the “AC1.4 Human” value [2] read?
**A.** Its value is 12.1 µM.

**Q.** And the EC50 [1]?
**A.** Its EC50 is 37.7 µM.

**Q.** What does the source list for `COC(=O)C1CC2(CC(NC(=O)NCc3ccc(OC)cc3)C2)C1` (centres unmarked) [Compound 35, Methyl 6-(3-(4-methoxybenzyl)ureido)spiro[3.3]heptane-2-carboxylate]?
**A.** AC1.4 Human [2]: 15.4 µM; EC50 [1]: 40.2 µM

**Q.** With `COc1ccc(CNC(=O)NCCCCCNC(=O)OC(C)(C)C)cc1` [Compound 36, tert-butyl (5-(3-(4-methoxybenzyl)ureido)pentyl)carbamate] as the compound, how does the “AC1.4 Human” value [2] read?
**A.** Its value is 9.8 µM.

**Q.** And the EC50 [1]?
**A.** Its EC50 is 35.4 µM.

**Q.** For `COc1ccc(CNC(=O)NC2CC3(C2)CN(C(=O)OC(C)(C)C)C3)cc1` [Compound 37, tert-butyl 6-(3-(4-methoxybenzyl)ureido)-2-azaspiro[3.3]heptane-2-carboxylate], which “AC1.4 Human” value [2] is on record?
**A.** The value was 4.2 µM.

**Q.** And the EC50 [1]?
**A.** The EC50 was 58.9 µM.

**Q.** How did the EC50 turn out when `COc1ccc(CNC(=O)NC2CC3(C2)CN(C(=O)Cc2ccccc2F)C3)cc1` [Compound 38, 1-(2-(2-(2-fluorophenyl)acetyl)-2-azaspiro[3.3]heptan-6-yl)-3-(4-methoxybenzyl)urea] was run?
**A.** The EC50 was 43.7 µM.

**Q.** What about the “AC1.4 Human” value [2] of the same compound?
**A.** The value was 13.7 µM.

**Q.** Which “AC1.4 Human” value [2] does the source give for `COc1ccc(CNC(=O)NC2CC3(C2)CN(C(=O)Cc2ccccc2Cl)C3)cc1` [Compound 39, 1-(2-(2-(2-chlorophenyl)acetyl)-2-azaspiro[3.3]heptan-6-yl)-3-(4-methoxybenzyl)urea] here?
**A.** The value was 5.6 µM.

**Q.** And the EC50 [1]?
**A.** Its EC50 is 41.9 µM.

**Q.** For `COc1ccc(CNC(=O)NC2CC3(C2)CN(C(=O)Cc2ccccc2OC)C3)cc1` [Compound 40, 1-(4-methoxybenzyl)-3-(2-(2-(2-methoxyphenyl)acetyl)-2-azaspiro[3.3]heptan-6-yl)urea], which “AC1.4 Human” value [2] is on record?
**A.** Its value is 17.2 µM.

**Q.** And the EC50 [1]?
**A.** Its EC50 is 24 µM.

**Q.** Which “AC1.4 Human” value [2] does the source give for `COc1ccc(CNC(=O)NC2CC3(C2)CN(C(=O)Cc2ccccc2C(F)(F)F)C3)cc1` [Compound 41, 1-(4-methoxybenzyl)-3-(2-(2-(2-(trifluoromethyl)phenyl)acetyl)-2-azaspiro[3.3]heptan-6-yl)urea] here?
**A.** Its value is 5.0 µM.

**Q.** What about the EC50 [1] of the same compound?
**A.** Its EC50 is 53.5 µM.
